Patent publication US20230355599A1, “BIOMARKERS FOR CBL, AND COMPOSITIONS AND METHODS FOR THEIR USE” (NURIX THERAPEUTICS, INC., priority 2022, published 2023)

Columns and labels:
phosphorylated ZAP70 = experiment: Phosphorylated ZAP70 in cynomolgus macaque CD8+ T cells from whole blood in vitro (flow cytometry); type: cell-based; details: Macaca fascicularis, T-cell, whole blood from six cynomolgus macaques, 2 hrs 37° C., 2 μg/mL anti-CD3 & anti-CD28 + crosslinker 60 minutes, read-out: Average mean EC50±standard deviation, phosphorylated ZAP70
Experimental: To assess these candidate clinical proximal biomarkers of Cbl-b inhibition on T cells, pharmacodynamic analysis was performed. Whole blood was obtained from cynomolgus macaque donors, then incubated with increasing concentrations of Compound 23. The response to Cbl-b inhibition on phosphorylated HS1, ZAP70 and PLCγ2 was measured in CD8^+ T cells using flow cytometry. This technique is highly quantitative and can measure multiple phosphorylation markers in different cell populations within the same sample.
DMSO (Dimethyl sulfoxide) was used to reconstitute Compound 23. Final concentration of DMSO was 0.05% in media for in vitro assays. […]
Stained cells were run on an Attune NxT Acoustic Focusing Flow Cytometer (Thermo Fisher, cat. No. A29004), and data was analyzed using FlowJo (v10.6.1) and GraphPad Prism (v8.00) software. Single lymphocytes were gated for CD8^+ cells (CD45^+/CD8^+) cells, and population frequencies were calculated for each population. The data is quantified by the percent positive. […] As protein becomes phosphorylated the fluorescence increases resulting in a larger fraction of the cells entering that gate. Each population was evaluated for % positive pY759-PLCγ2, pY397-HS1 levels, pY319/Syk (Y352)-ZAP70 levels.

A20 lymphoma tumor model = experiment: A20 lymphoma tumor model, anti-tumor activity; type: in vivo, mouse; details: dosed at 10, 30 or 60 mg/kg
Description: An elevated percentage of pHS1+CD8+ T cells correlated with potent anti-tumor effects in mouse syngeneic tumor models and defined a biomarker therapeutic range. At this therapeutic range, approximately 50% proximal biomarker pHS1 correlates with the efficacious range.

phosphorylated HS1 = experiment: Phosphorylated HS1 in circulating CD8+ T cells of patients, Phase 1 trial (flow cytometry); type: in vivo, human
Experimental: Pharmacodynamic analysis of the proximal biomarker, phosphorylated HS1 is assessed in circulating CD8^+ T cells from patients that are being administered doses ranging from 5 to 50 mg of Compound 23 once daily and is being used to assess target engagement of Compound 23 as part of the dose/exposure-response profile. Whole blood is collected longitudinally and added into two types of TruCulture (Myriad) tubes. One tube contains media, and the second tube contains anti-CD3 and anti-CD28, which are subsequently crosslinked to induce cellular stimulation for pharmacodynamic analysis. Phosphorylated HS1 is assessed by flow cytometry pre and post dose on Cycle 1 Day 1 (C1D1) and Cycle 2 Day 1 (C2D1) to characterize single/multiple dose PD profiles.
% Maximal phosphorylated signal and % AUC are two commonly used parameters to assess the pharmacodynamic effects of drugs.
% Maximal phosphorylated signal refers to the maximum amount of a specific protein that becomes phosphorylated (i.e., modified by the addition of a phosphate group) in response to a drug or other stimulus. This parameter is often used to measure the activation of signaling pathways that are important for various cellular processes, including cell growth and differentiation, immune response, and metabolism.
% AUC, on the other hand, refers to the area under the curve (AUC) over time, expressed as a percentage of the maximum possible AUC. In summary, both % maximal phosphorylated signal and % AUC are useful parameters to assess the pharmacodynamic effects of drugs. % maximal phosphorylated signal is a measure of the activation of signaling pathways, while % AUC reflects the duration of the effect on PD signals. Both parameters can be used to evaluate the potency and duration of a drug's pharmacodynamic effects.

[1] = 5 mg once daily, n=1, cycle 1, day 1
[2] = 15 mg once daily, n=12, cycle 1, day 1
[3] = 25 mg once daily, n=7, cycle 1, day 1
[4] = 50 mg once daily, n=2, cycle 1, day 1

C[C@H]1CCCN(Cc2cc3c(c(C(F)(F)F)c2)CN(c2cccc([C@]4(c5nncn5C)C[C@@H](C)C4)c2)C3=O)C1 [Compound 23]
EC50 (phosphorylated ZAP70): 173 ± 177 nM | median survival time compared to the vehicle control (A20 lymphoma tumor model): prolonged median survival time | tumor size compared to the vehicle control (A20 lymphoma tumor model): significantly smaller tumors | % of phosphorylated HS1 expressing CD8+ T cells (maximal) (phosphorylated HS1; [1]): 35% | phosphorylated HS1 AUC (phosphorylated HS1; [1]): 578 | % of phosphorylated HS1 expressing CD8+ T cells (maximal) (phosphorylated HS1; [2]): 46% | phosphorylated HS1 AUC (phosphorylated HS1; [2]): 787 | % of phosphorylated HS1 expressing CD8+ T cells (maximal) (phosphorylated HS1; [3]): 53% | phosphorylated HS1 AUC (phosphorylated HS1; [3]): 876 | % of phosphorylated HS1 expressing CD8+ T cells (maximal) (phosphorylated HS1; [4]): 52% | phosphorylated HS1 AUC (phosphorylated HS1; [4]): 1055 | trend of AUC % pHS1 with PK (phosphorylated HS1; Pearson correlation with PK parameters (AUC and CMAX), statistically significant slope p=0.02): positive trend
